Values of other authors as cited in patent publication US12251376B2, “Combinations with thiazolidinediones for use in the prevention or treatment of abnormal bone growth” (SERVIZO GALEGO DE SAÚDE (SERGAS), priority 2019, dated 2025).
Values joined by “and” are separate entries in the source; they are usually repeats but may differ in a detail not shown here. Equal values may be shown once. Each block holds one molecule with its values, some of them ahead of it.

Assays:
[1] = not given; remark: listed apart in the source
[2] = not given; remark: listed apart in the source
abnormal bone growth = conditions: for preventing recurrence of heterotopic ossification after total hip replacement: state of the art

Volume of distribution (in vivo): 0.25 L/kg
Bioavailability (oral): > 80% and ~83%
time of maximum plasma dose after oral administration (oral): 2 h
increase of plasma concentration with dose (tested from 2 mg to 60 mg): Linear increase
doses shown safe in clinical trials [1]: up to 180 mg/day
solubility [2]: highly insoluble
SMILES: CCc1ccc(CCOc2ccc(CC3SC(=O)NC3=O)cc2)nc1 (centres unmarked) [pioglitazone]

Bioavailability (oral): total
SMILES: COc1ccc2c(c1)c(CC(=O)O)c(C)n2C(=O)c1ccc(Cl)cc1 [indomethacin]
reduction of abnormal bone growth (clinical data) (abnormal bone growth; 75 mg retard administration): significantly reduce
preventing recurrence of heterotopic ossification after total hip replacement (abnormal bone growth): some effect

SMILES: CC(=O)Oc1ccccc1C(=O)O [aspirin]
preventing recurrence of heterotopic ossification after total hip replacement (abnormal bone growth): some effect

SMILES: CC(C)Cc1ccc(C(C)C(=O)O)cc1 (centres unmarked) [ibuprofen]
preventing recurrence of heterotopic ossification after total hip replacement (abnormal bone growth): some effect
